We go through two molecules from US20260306525A1, “COMBINATION THERAPY GLUCOCORTICOIDS AND GINSENOSIDE” (FYTAGORAS B.V., priority 2023, published 2026).

One series has as its system neutrophils. Briefly: zebrafish tail fin wounding assay, neutrophil migration to wounded site. The class given is in vivo, zebrafish (Danio rerio). How it is done: (§1) Zebrafish (Danio rerio) were maintained and handled according to the guidelines from the Zebrafish Model Organism Database (http://zfin.org) and in compliance with the directives of the local animal welfare committee of Leiden University. Zebrafish were exposed to a 14 h light and 10 h dark cycle to maintain circadian rhythmicity. Fertilization was performed by natural spawning at the beginning of the light period. […] The following zebrafish lines were used in this study: the double transgenic line Tg(mpx:GFP^i114/mpeg1:mCherry^umsF001), in which neutrophils and macrophages are fluorescently labeled (green and red, respectively), and the Tg(9xGCRE-HSV.UI23:EGFP)^ia20 reporter line, in which the gene encoding enhanced green fluorescent protein (EGFP) is driven by a GRE-containing promoter.
(§2) For the tail fin wounding experiments, 20 larvae at 2 or 3 days post-fertilization (dpf) were utilized for each experimental group. For wounding, larvae were anesthetized in egg water containing 0.02% buffered aminobenzoic acid ethyl ester (tricaine; Sigma-Aldrich). Larvae were placed on Petri dishes coated with 2% agarose under a Leica M165C stereomicroscope (Leica Microsystems, Wetzlar, Germany), and the tails were partly amputated using a 1-mm sapphire blade (World Precision Instruments, Sarasota, FL, USA). For quantification of leukocyte migration, larvae were fixed overnight in 4% paraformaldehyde (PFA) at 4° C. The next day, fixed larvae were washed with Phosphate Buffered Saline (PBS) containing 0.1% Tween 20, and stored at 4° C. until imaging.
(§3) The macrophages were detected based on their red (mCherry) fluorescence, and neutrophils based on their green (EGFP) fluorescence. To quantify the number of macrophages and neutrophils recruited to the wounded area, the cells in a defined area of the tail were determined by blinded manual counting.
(§4) Zebrafish (Danio rerio) were maintained and handled according to the guidelines from the Zebrafish Model Organism Database (http://zfin.org) and in compliance with the directives of the local animal welfare committee of Leiden University. Zebrafish were exposed to a 14 h light and 10 h dark cycle to maintain circadian rhythmicity. Fertilization was performed by natural spawning at the beginning of the light period. […] The following zebrafish lines were used in this study: AB/TL wild type, the transgenic lines Tg(mpx:GFP^i114/mpeg1:mCherry^umsF001)[14, 15], and Tg(9xGCRE-HSV.UI23:EGFPia^20)[16], and the mutant lines grs357[20].
(§5) For the tail fin wounding experiments, 2- or 3-days post-fertilization (dpf) larvae were anesthetized in egg water containing 0.02% buffered aminobenzoic acid ethyl ester (tricaine; Sigma-Aldrich). Larvae were placed in Petri dishes coated with 2% agarose under a Leica M165C stereomicroscope (Leica Microsystems, Wetzlar, Germany), and the tails were partly amputated using a 1-mm sapphire blade (World Precision Instruments, Sarasota, FL, USA).
(§6) In experiments in which the leukocyte migration was used as a readout, larvae were subjected to treatment with chemicals as indicated, starting at 2 h before the amputation (pretreatment), and treatment was continued for 4 h after the tail fin amputation (20 larvae per group, unless indicated otherwise). In some experiments, a 24 h treatment with MZ31 (10 μM) was started at 2 dpf, and these treatments were continued during the pretreatment and treatment with the other chemicals. At 4 h after amputation, the larvae were fixed in 4% paraformaldehyde (PFA) overnight at 4° C. The next day, fixed larvae were washed with Phosphate Buffered Saline (PBS) containing 0.1% Tween 20 and stored at 4° C. until imaging. […] The macrophages were detected based on red (mCherry) fluorescence and neutrophils on their green (EGFP) fluorescence. To quantify the number of macrophages and neutrophils recruited to the wounded area, the cells in a defined area of the tail were determined by blinded manual counting. […]

Another series has as its system gr. Briefly: Gr transactivation activity in Tg(9xGCRE-HSV.UI23:EGFP)ia20 reporter larvae. The class given is in vivo, zebrafish (Danio rerio). As to conditions: 24 h from 2 dpf; 10 μM GC, 50 μM Rg1 or combination. On the procedure:
To investigate the Gr transactivation activity in zebrafish larvae, the Tg(9xGCRE-HSV.UI23:EGFP)^ia20 reporter line was used, which expresses enhanced green fluorescent protein (EGFP) under the control of a promoter containing an array of nine GREs. […] The integrated intensity of the EGFP signal in the larvae was determined using ImageJ software.
To investigate the Gr transactivation activity in zebrafish larvae, the Tg(9xGCRE-HSV.UI23:EGFP^ia20) reporter line was used, which expresses enhanced green fluorescent protein (EGFP) under the control of a promoter containing an array of nine GREs. […] The integrated intensity of the EGFP signal in the larvae was determined using ImageJ software.

The nature of series [1]: size exclusion chromatography of micelles (Sephadex G50) with HPLC. It is filed as physicochemical. How it is done:
The size and content of the micelles were determined by means of size exclusion chromatography. 1 mL of aqueous ginsenoside/dexamethasone solution was loaded on a Sephadex G50 size exclusion column (size 25×1 cm) and eluted under gravity with water. Blue dextran (MW=2.000.000 Da) and erythrosine (880 Da) were used as molecular weight markers. Fractions of 2.0 mL were collected. The fractions were dried and dissolved in 70% methanol and the ginsenoside content was analyzed by means of HPLC. HPLC conditions were: • HPLC equipment: HPLC/DAD Aligent 1200 series, a quaternary pump connected to a DAD and autosampler. • Stationary phase: Kinetex 2.6 μm, C18 100 Å, 100×4.6 mm-Phenomenex, USA • Mobile phase: • A: 0.03% o-phosphoric acid (H3PO4) in Ultrapure H2O • B: 0.03% o-phosphoric acid (H3PO4) in Acetonitrile (LiChrosolv, Millipore-Merck, Darmstadt, Germany; quality far UV) • Gradient:
• Conditions • Flow: 0.8 ml/min • Injection volume: 20 μL • Column temperature: 35° C. • Detection wavelength: 203 and 241 nm

The conditions of series [2]: rule of thumb, literature table; cited from earlier work.
Series [3] has as its system zebrafish larvae. Briefly: tail fin regeneration assay.
For a further series, the system named is macrophages. Kind of series: zebrafish tail fin wounding assay, macrophage migration to wounded site. The class given is in vivo, zebrafish (Danio rerio). Conditions: Example 3, ginsenoside Re. On the procedure:
as §1, §2, §3, §4, §5, §6

Series [4] can be described thus: micelle formation from dried film dissolved in H2O; appearance of solution. The class given is physicochemical. On the procedure:
Dried leaves of the plant Panax ginseng (8 gram) were boiled in water (350 mL), filtrated and loaded on a 20 mL Bed Volume (BV) column filled with macroporous resin (type D101). After extensively washing with water (15 BV's) the ginsenosides were eluted with 60% EtOH. The ginsenoside solution was decolorized by passing through a 20 mL BV column filled with type D941 macroporous resin. Subsequently, the solvents were slowly evaporated, after at 80° C. under reduced pressure (375 hPa) using a glass vials and a evaporator (P12-Multivapor, Buchi). After evaporation of both the ethanol and the water, a transparent film was formed on the wall of the glass vial.
In parallel 100 mg pure Re was solved in 10 mL of ethanol. […] The ethanol was slowly removed at 80° C. under low pressure (375 hPa) using a glass vials and a evaporator (P12-Multivapor). Again a clear film was formed on the wall of the glass tubes.
Micelle formation of ginsenoside extract obtained from dried leaves as described above was repeated in the presence of 0.6 mg of dexamethasone. Dexamethasone was first dissolved in ethanol in a concentration of 10 mg/mL and 0.6 mg of dexamethasone was added to the ethanolic ginsenoside fraction obtained after purification and decolorization by D101 and D941 resins respectively, using the method described herein above. The content of Re and Rg1 in this ethanolic ginsenoside fraction was 4 mg/10 mL as determined by HPLC (see below). The molecular ratio between dexamethasone and Re/Rel in this solution was around 5:70. The ethanol fraction was slowly removed at 80° C. under reduced pressure (375 hPa) using a glass vials and a evaporator to obtain a film. […] The content and the presence of micelles were assessed by size exclusion chromatography as described below.

Series [5] concerns zebrafish larvae. Kind of series: whole-body glucose measurement of zebrafish larvae. As to conditions: Example 3, ginsenoside Re.
In series [6] the test system is zebrafish larvae. Briefly: whole-body cortisol measurement of zebrafish larvae (ELISA). Conditions: Example 3, ginsenoside Re.

As for `C[C@@H]1C[C@H]2[C@@H]3CCC4=CC(=O)C=C[C@]4(C)[C@@]3(F)[C@@H](O)C[C@]2(C)[C@@]1(O)C(=O)CO` [dexamethasone, reference compound], the “neutrophil migration to the wounded site” value in the series with neutrophils (10 μM dexamethasone) is “did not affect neutrophil migration”. Moreover, in the series on gr, the “relative EGFP intensity (Gr transactivation)” value is listed as “significantly increased the relative EGFP intensity”. For the same molecule, the “detection of free dexamethasone in fractions after 55 mL” value in series [1] is listed as “could not be detected in these fractions”. The “co-elution of dexamethasone with micelles / encapsulation” value in [1] (Sephadex G50 fractions) was “co-eluted with the Re and Rg1 containing micelles”. Further, the “dose equivalent to a 5 mg prednisone dose” value in [2] is “about 0.75 mg”. Also, in the series with zebrafish larvae [3] (0-5 dpf, 10 μM beclomethasone or dexamethasone, 50 μM Rg1 or combinations, amputation at 2 dpf), the “regeneration of amputated tail fin (length of regenerated tissue at 5 dpf)” value is “dexamethasone-induced inhibition of the regenerative process”.

Consider `CC(C)=CCC[C@](C)(O[C@@H]1O[C@H](CO)[C@@H](O)[C@H](O)[C@H]1O)[C@H]1CC[C@]2(C)[C@@H]1[C@H](O)C[C@@H]1[C@@]3(C)CC[C@H](O)C(C)(C)[C@@H]3[C@@H](O[C@@H]3O[C@H](CO)[C@@H](O)[C@H](O)[C@H]3O[C@@H]3O[C@@H](C)[C@H](O)[C@@H](O)[C@H]3O)C[C@]12C` [Re, (3β, 6α, 12β)-20-(β-D-Glucopyranosyloxy)-3, 12-dihydroxydammar-24-en-6-yl 2-O-(6-deoxy-α-L-mannopyranosyl)-β-D-glucopyranoside], for which the “migration of neutrophils to the wounded tail area” value with neutrophils (Example 3, ginsenoside Re) is reported as “inhibited the migration of neutrophils to the wounded tail area”. In the series with macrophages, the migration of macrophages entry is listed as “did not inhibit the migration of macrophages”. The “appearance of solution in ethanol” value in series [4] (100 mg in 10 mL of ethanol) is “clear solution”. Further, in series [4] (film from ethanol (or 60% EtOH) evaporation, dissolved in H2O), the “appearance of solution in H2O after dissolving the film” value is listed as “cloudy solution”. For the same molecule, the “micelle formation / crystallization in H2O” value in [4] (microscopic determination, 10 mL H2O) was “crystallization of Re (FIG. 12B) and no micelles were obtained”. The regenerative tissue entry in the series on zebrafish larvae [3] (Example 3, ginsenoside Re) is given as “did not affect regenerative tissue”. Besides, the whole body glucose result in the series with zebrafish larvae [5] is on record as “no side effects could be observed”. Besides, the whole body cortisol entry with zebrafish larvae [6] was “no side effects could be observed”.
